Here are results for three compounds from paper PMC10194703 (Nature structural & molecular biology, 2023).

Where “and” joins values, the source holds several entries; their conditions need not be identical. Equal values may be shown once.

For assay [1], the system named is SthK CNBD. As to the kind of experiment: AFM single molecule force spectroscopy. Type of assay: binding. The following applies: for Ka: individual binding sites, Ka=Ka(2D)mr, mr=0.03 binding-sites/nm^2; for Ka(2D): probabilistic binding frequency model fit, contact time 0.02-1.00 s.
The subject of a further assay is SthK. The conditions noted are these: cited from earlier work; for open probability Po: depolarized membrane potentials (+100 mV).
The target of assay [2] is SthK full-length channels. The following applies: read-out: affinity; SthK full-length channels in amphipol; cited from earlier work.
Assay [3] relates to SthK CNBD. The assay can be described thus: joint Bell-Evans fitting of AFM-SMFS and MDS dynamic force spectra. The conditions noted are these: Bell-Evans fit, AFM-SMFS + MDS joint data; 0.02 s bond formation.
Another assay deals with T1, His6-C-linker-CNBD (Winmispira thermophila, UniProt G0GA88).
T1 sequence (G0GA88 226-423): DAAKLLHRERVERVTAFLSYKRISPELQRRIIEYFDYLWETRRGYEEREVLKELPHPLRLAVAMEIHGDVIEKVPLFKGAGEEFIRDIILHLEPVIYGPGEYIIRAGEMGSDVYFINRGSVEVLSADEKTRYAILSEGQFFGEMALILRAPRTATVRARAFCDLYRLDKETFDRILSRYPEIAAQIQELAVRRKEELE
As to the kind of experiment: microscale thermophoresis. It counts as binding. The following applies: 50 nM labeled His6-C-linker-CNBD; cN 0.00305-100 μM.

For assay [4], the target named is His6-C-linker-CNBD construct of SthK (residues 226-423). As to the kind of experiment: SEC.
For assay [5] the target is unchanged. The assay can be described thus: AFM imaging.
Setting [6] is: interchange between state 1 and state 2 bonds.

In the case of `Nc1ncnc2c1ncn2[C@@H]1O[C@@H]2COP(=O)(O)O[C@H]2[C@H]1O` [cAMP, cyclic adenosine monophosphate], in the assay on SthK CNBD [1], the “bond formation time needed to fully populate state 2” value is ~ 0.2 s, the Ka is given as 0.31 ± 0.04 and the “Ka(2D)” value is on record as 10.4 ± 1.3 nm^2. Besides, in the assay with SthK CNBD [1] (setting [6]), the “k1 (forward rate constant for entering the deeper binding mode)” value is 5.4 ± 0.7 1/s and 5.4±0.7 * 1/s; the “k−1 (reverse rate constant for entering the deeper binding mode)” value was 4.8 ± 0.8 1/s and 4.8±0.8 * 1/s. Further, the “open probability Po” value with SthK is listed as ~ 0.4. Further, in assay [2], the Kd was 0.6 µM.
Take `Nc1nc2c(ncn2[C@@H]2O[C@@H]3COP(=O)(O)O[C@H]3[C@H]2O)c(=O)[nH]1` [cGMP, cyclic guanosine monophosphate]: the koff in the assay on SthK CNBD [1] (Bell-Evans fit, AFM-SMFS only, 0.02 s (20 ms) bond formation time) turned out to be 7.7 ± 1.5 s⁻¹; with SthK CNBD [3], 13.9 ± 6.9 s⁻¹. The compound also showed a Ka with SthK CNBD [1] of 0.15 ± 0.02. Further, the “kon(2D)” value in the assay with SthK CNBD [1] (kon(2D)=Ka(2D)koff) turned out to be 37.8 ± 9.7 nm^2/s. Besides, the kon in the assay on SthK CNBD [1] (molecular on rate, kon=Kakoff) is 1.2 ± 0.3 s⁻¹. Moreover, the “Ka(2D)” value in the assay with SthK CNBD [1] stood at 4.9 ± 0.5 nm^2. The results for the Kd (at His6-C-linker-CNBD; in assay [2]) were 3.3 ± 1.8 µM and 2.7 µM, respectively. Further, the “open probability Po” value in the assay with SthK was ~ 0.001. Further, the “fold lower open probability than cAMP” value in the assay on SthK (single channel recordings) was ~ 1000 fold.
“His6-C-linker-CNBD construct of SthK (residues 226-423) (domain or fragment)”: the stoichiometry N in assay [4] and in assay [5] was 4 in each case.

Usually koff stands for a measure of how fast the partners let go of each other. Broadly, the stoichiometry N is the number of molecules, sites or subunits per partner or assembly.
